# According to patent publication US20240115711A1, “Novel Bifunctional Molecules For Targeted Protein Degradation” (Amphista Therapeutics Limited, priority 2020, published 2024):
# Read-outs that look alike come from different tables or passages of the source.
# Legend:
# tumor cell lines [1] = conditions: up to 94 tumor cell lines, from Ottis et al, identical assay conditions, cited from earlier work; for # tumor cell lines Low sensitivity/Resistant: degrader GI50 < inhibitor; for # tumor cell lines Highly sensitive: degrader GI50 >3 fold more potent than inhibitor
# MV4;11 cells = test: Assay 3 - MV4;11 cell viability using CellTiter-Glo assay; assay type: cell-based; conditions: Homo sapiens, 48 h incubation
# Experimental: 1.3 Assay 3—MV4;11 Cell Viability Using CellTiter-Glo Assay
# The anti-proliferative effects of representative compounds were measured using the CellTiter-Glo assay (Promega). MV4;11 cells were seeded into sterile, white, clear-bottomed 384-well cell-culture microplates (Greiner Bio-one), at 2× concentration in IMDM media and a volume of 25 μL. Test compounds were serially diluted (11-pt dose-response from 1 μM) in IMDM media to 2× concentration, then added to cells to make a final volume of 50 μL. Final DMSO concentration was 0.05%. After 48 h incubation, 25 μL of CellTiter-Glo reagent was added to each well. Following a 15 minutes incubation the luminescence signal was read on a CLARIOStar Plus. Data was processed and dose-response curves were generated using Prism 8 (Graphpad).
# The impact on cell viability of MV4;11 cells was evaluated according to the procedure outlined in assay 3 for compounds A1, A2, A8 and A9.
# tumor cell lines [2] = test: Cancer cell panel screening, GI50 by Sulforhodamine B method; assay type: cell-based; conditions: up to 94 tumor cell lines, 72 h
# Experimental: Cancer cell panel screening was provided as a service from OncoLead GmbH & Co. KG. After a lag phase of 48 h, each cell line was treated with six different concentrations (10^−10, 10^−9, 10^−8, 10^−7, 10^−6, 10^−5 M) of either A2 or I-BET726 for 72 h. Concentrations to give half-maximal growth inhibition (GI50) were determined using the Sulforhodamine B method. Log(GI50) values were plotted as single points (I-BET726, cross; A2, dot) superimposed on the bar graph and plotted along the right y axis. Log ratio of the GI50 determined for I-BET726 versus the GI50 determined for A2 were plotted for each cell line tested (bars, left y axis).
# Where no specific GI50 value could be determined, a GI50 of at least 10^−5 M was assumed to calculate the inhibitor vs degrader ratio.
# Similar studies have previously been carried out on CRBN PROTAC (dBET6) and VHL PROTAC (MZ1) (see, for example, Ottis et al, ACS Chem. Biol. 2019, 14, 2215-2223 under identical assay conditions).
# Low sensitivity/resistant defined as degrader GI50<inhibitor.
# HiBit-BRD4 = target: T1, HiBit-BRD4 (Homo sapiens, UniProt O60885); test: Assay 1 - Degradation of HiBit-BRD4 in HEK293; assay type: cell-based; conditions: HiBit-BRD4 HEK293, 6 h treatment
# T1 construct: HEK293 containing a HiBit insertion for BRD4; endogenous in cells; host or cells: HEK293 with HiBit insertion at BRD4
# Experimental: 1.1 Assay 1—Degradation of HiBit-BRD4 in HEK293
# HEK293 containing a HiBit insertion for BRD4 were plated in 384-well tissue culture plates at a density of 8×10^4 per well in a volume of 36 μL and incubated overnight at 37° C. and 5% CO2. Wells were treated with test compounds for 6 h prior to addition of the NanoLuc substrate and reading on a […]. Degradation data was plotted and analysed using […] (Graphpad).
# The degradation of target protein BRD4 was detected according to the procedure outlined in assay 1 for the following compounds.
# [3] = In vivo systemic drug exposure after oral and intravenous dosing; conditions: female, mouse, plasma, C57BL/6 mice
# Experimental: Test compound was administered to C57BL/6 mice, (6-8 weeks, 18-20 g, female, N=6, purchased from JH Laboratory Animal Co. with free access to food and water) at the indicated dose level via oral gavage (p.o., 10 mL/kg, 5% DMSO+95%(15% HP-β-CD in Water) vehicle, oral dosing leg) or tail vein (i.v., 5 mL/kg, 5% DMSO+95%(15% HP-β-CD in Water) vehicle, intravenous leg). The animal was restrained manually at designated time points up to 24 h, approximately 110 μL of blood sample was collected via facial vein into K2EDTA tubes. Blood sample was put on ice and centrifuged at 2000 g for 5 min to obtain plasma sample within 15 minutes which was analysed on an LC-MS/MS-19 (Triple Quad 5500) in positive ion ESI mode following sample prep and HPLC elution:
# Mobile Phase: • Mobile Phase A: H2O—0.025% FA—1 mM NH4OAC • Mobile Phase B: MeOH—0.025% FA—1 mM NH4OAc
# • Column: ACQUITY UPLC BEH C18 2.1*50 mm 1.7 um • Flow rate: 0.60 mL/min • Column temperature: 60° C.
# [4] = In vivo drug exposure in the brain after systemic dosing; conditions: C57BL/6 mice, intravenous 5 mg/kg dose
# Experimental: Blood collection: The animal was restrained manually at designated time points up to 24 h, approximately 110 μL of blood sample was collected via facial vein into K2EDTA tubes. Blood sample was put on ice and centrifuged at 2000 g for 5 min (4° C.) to obtain plasma sample within 15 minutes. Brain collection: The animal was euthanized under CO2. A mid-line incision was made in the animal's scalp and skin retracted. The skull overlying the brain was removed. The whole brain was collected, rinsed with cold saline, dried on filtrate paper, weighted, snap frozen by placing into dry-ice. The sample was homogenized with 3 volumes (v/w) of PBS prior to analysis. Samples were analysed on an LC-MS/MS-19 (Triple Quad 5500) in positive ion ESI mode following sample prep and HPLC elution: Mobile Phase: • Mobile Phase A: H2O—0.025% FA—1 mM NH4OAC • Mobile Phase B: MeOH—0.025% FA—1 mM NH4OAc • Column: waters BEH C18 (2.1×50 mm, 1.7 μm) • Flow rate: 0.60 mL/min • Column temperature: 60° C.
# mutant KRas (G12C) = target: T2, mutant KRas (G12C) (Homo sapiens, UniProt P01116, G12C); test: Assay 6 - Degradation of KRas-G12C by immunoblot (MIA-PaCa-2 cells); assay type: cell-based; conditions: after 24 h treatment with 1000 nM
# T2 construct: endogenous in cells; host or cells: MIA-PaCa-2
# Experimental: 1.6 Assay 6—Degradation of KRas-G12C by Immunoblot.
# MIA-PaCa-2 cells were seeded in 6- or 12-well plates overnight prior to 24 h treatment with test compounds at the desired concentration (DMSO final concentration 0.1%). After 24 h incubation, cells were washed with PBS and lysed with RIPA buffer (Sigma) supplemented with 1 mM MgCl2, 1 U/mL Benzonase (Sigma), and 1× cOmplete Mini EDTA-free Protease Inhibitor Cocktail (Roche). Lysates were clarified by centrifugation (15,000×g, 20 min, 4° C.) and the total protein content of the supernatant was quantified using a BCA assay. Samples were prepared using equal amounts of total protein and LDS sample buffer (Invitrogen). […] Blots were visualised using a Bio-Rad ChemiDoc MP Imaging System, and band quantification was performed using Image Studio software (LiCor). […] Degradation data was plotted and analysed using Prism (Graphpad, version 8).
# The degradation of target protein mutant KRas (G12C) was detected according to the procedure outlined in […] for the compound A64.
# T2 sequence (P01116 1-188 isoform P01116-2 G12C): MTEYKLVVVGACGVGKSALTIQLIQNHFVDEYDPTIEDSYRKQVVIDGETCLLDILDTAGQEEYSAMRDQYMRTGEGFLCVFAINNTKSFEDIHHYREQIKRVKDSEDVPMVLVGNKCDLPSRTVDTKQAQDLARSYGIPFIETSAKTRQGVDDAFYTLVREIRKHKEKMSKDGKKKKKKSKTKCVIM
smiles,measurement,setting,value
"Cc1sc2c(c1C)C(c1ccc(Cl)cc1)=N[C@@H](CC(=O)NCCCCCCCCNC(=O)COc1cccc3c1C(=O)N(C1CCC(=O)NC1=O)C3=O)c1nnc(C)n1-2 (stereo partly shown) [CRBN PROTAC (dBET6), dBET6]","# tumor cell lines GI50, <1 μM",tumor cell lines [1],58%
same,# tumor cell lines Low sensitivity/Resistant,tumor cell lines [1],52%
same,# tumor cell lines Highly sensitive,tumor cell lines [1],29%
"CCCC(NC(=O)/C(C#N)=C/c1nccs1)c1ccc(OCC(=O)NCCOCCOCCOCCOCCOCCNC(=O)c2ccc(-c3ccc4c(c3)[C@H](Nc3ccc(Cl)cc3)C[C@H](C)N4C(C)=O)cc2)cc1 (stereo partly drawn) [Example A1, 4-((2S,4R)-1-acetyl-4-((4-chlorophenyl)amino)-2-methyl-1,2,3,4-tetrahydroquinolin-6-yl)-N-(1-(4-(1-((E)-2-cyano-3-(thiazol-2-yl)acrylamido)butyl)phenoxy)-2-oxo-6,9,12,15,18-pentaoxa-3-azaicosan-20-yl)benzamide]",IC50,MV4;11 cells,48 nM
"CCCC(c1ccc(OCC(=O)NCCOCCOCCOCCOCCOCCNC(=O)c2ccc(-c3ccc4c(c3)[C@H](Nc3ccc(Cl)cc3)C[C@H](C)N4C(C)=O)cc2)cc1)N(C)C(=O)/C(C#N)=C/c1nccs1 (stereo partly drawn) [Example A2, 4-((2S,4R)-1-acetyl-4-((4-chlorophenyl)amino)-2-methyl-1,2,3,4-tetrahydroquinolin-6-yl)-N-(1-(4-(1-((E)-2-cyano-N-methyl-3-(thiazol-2-yl)acrylamido)butyl)phenoxy)-2-oxo-6,9,12,15,18-pentaoxa-3-azaicosan-20-yl)benzamide]","# tumor cell lines GI50, <1 μM",tumor cell lines [2],100%
same,# tumor cell lines Highly sensitive,tumor cell lines [2]; highly sensitive = degrader GI50 >3 fold more potent than inhibitor,66%
same,# tumor cell lines Low sensitivity/Resistant,tumor cell lines [2]; low sensitivity/resistant = degrader GI50 < inhibitor,15%
same,IC50,MV4;11 cells,2 nM
CCCC(c1ccc(OCC(=O)NCCOCCOCCOCCOCCOCCNC(=O)c2ccc(-c3ccc4c(c3)[C@H](Nc3ccc(Cl)cc3)C[C@H](C)N4C(C)=O)cc2)cc1)N(C)C(=O)/C=C/c1nccs1 (stereo partly shown) [Example A6],DC50,HiBit-BRD4,< 10000 nM
CCCC1c2ccc(OCCN3CCC(C(=O)Nc4ncc(SCc5ncc(C(C)(C)C)o5)s4)CC3)cc2CCN1C(=O)/C(C#N)=C/c1cccc(Br)n1 (stereo not shown) [Example A37],bioavailability,[3]; 10 mg/kg oral vs 1 mg/kg intravenous,7.2%
same,AUC(0-inf),[3]; intravenous 1 mg/kg dose,841 ng·h/mL
same,AUC(0-inf),[3]; oral 10 mg/kg dose,605 ng·h/mL
"CCCC(c1ccc(CCCN2CCC(CNc3ncc(SCc4ncc(C(C)(C)C)o4)s3)CC2)cc1)N(C)C(=O)/C(C#N)=C/c1nc2ccccc2s1 (stereo not shown) [Example A39, 3-(benzo[d]thiazol-2-yl)-N-(1-(4-(3-(4-(((5-(((5-(tert-butyl)oxazol-2-yl)methyl)thio)thiazol-2-yl)amino)methyl)piperidin-1-yl)propyl)phenyl)butyl)-2-cyano-N-methylacrylamide]",brain AUC(0-INF),[4],845 ng·h/mL
same,Kp,"[4]; female, mouse, brain and plasma, ratio of AUC(0-INF)",0.6
same,AUC(0-inf),"[4]; female, mouse, plasma",1340 ng·h/mL
"C=CC(=O)N1CCN(c2nc(OC[C@@H]3CCCN3CCCCNC(=O)CCc3ccc(C(CCC)N(C)C(=O)/C(C#N)=C/c4nccs4)cc3)nc3c2CCN(c2cccc4cccc(Cl)c24)C3)C[C@@H]1CC#N (stereo partly drawn) [Example A64, (E)-N-[1-[4-[3-[4-[(2S)-2-[[7-(8-chloro-1-naphthyl)-4-[(3S)-3-(cyanomethyl)-4-prop-2-enoyl-piperazin-1-yl]-6,8-dihydro-5H-pyrido[3,4-d]pyrimidin-2-yl]oxymethyl]pyrrolidin-1-yl]butylamino]-3-oxo-propyl]phenyl]butyl]-2-cyano-N-methyl-3-thiazol-2-yl-prop-2-enamide]",residual KRas (G12C) abundance,mutant KRas (G12C),less than 50%
"Cc1ncsc1-c1ccc(CNC(=O)[C@@H]2C[C@@H](O)CN2C(=O)[C@@H](NC(=O)COCCOCCOCCNC(=O)C[C@@H]2N=C(c3ccc(Cl)cc3)c3c(sc(C)c3C)-n3c(C)nnc32)C(C)(C)C)cc1 [VHL PROTAC (MZ1), MZ1]","# tumor cell lines GI50, <1 μM",tumor cell lines [1],83%
same,# tumor cell lines Low sensitivity/Resistant,tumor cell lines [1],26%
same,# tumor cell lines Highly sensitive,tumor cell lines [1],47%
